Assays:
[1] = biological target: NMDA-D (NR1/2D) receptors (Homo sapiens, UniProt O15399+Q05586); assay: Antagonist activity on NMDA receptors (current blockade and recovery)
[2] = Lipophilicity relative to ketamine; type: physicochemical
GABAa receptors = assay: Agonist activity on GABAa receptors, subtype not separated in the text; type: cell-based; details: for potentiation of GABAA current / response from GABAa receptors, in words: relative to ketamine, various concentrations
Method: (§1) The GABAa subtypes α6β2δ and α1β2γ2 receptors are expressed at high levels exclusively within mature cerebellar granule neurons.
(§2) The ketamine analogues were tested for agonist activities at GABAa receptors both in the presence and absence of GABA (FIGS. 13-16). […] Oxime 2 was prepared both as a mono-salt and di-salt.

[3] = biological target: NMDA-B (NR1/2B) receptors (Homo sapiens, UniProt Q05586+Q13224); assay: Antagonist activity on NMDA receptors (current blockade and recovery)
[4] = biological target: NMDA-A (NR1/2A) receptors (Homo sapiens, UniProt Q05586+Q12879); assay: as above
[5] = test system: NMDA receptors with NR2-A and NR2-B subunits; details: cited from earlier work
α6β2δ GABAa receptors = biological target: T1, α6β2δ GABAa receptors (Homo sapiens, UniProt O14764+P47870+Q16445); assay: Agonist activity of ketamine analogues on GABAa receptors (potentiation of GABA current, oocyte expression system); type: cell-based
T1 construct: expressed in transfected cells
Method: as §1, §2

rats [6] = assay: Tail suspension model of depression in rats; type: in vivo; details: 5 mg/kg, tail suspension for 12 minutes
Method: Rats were dosed with ketamine oxime disalt and then tested in a model of depression. FIG. 24 illustrates an analysis of the antidepressant effects of ketamine and the oxime analogue at 5 mg/kg in rats undergoing tail suspension for 12 minutes. Note that immobility, giving up the struggle, is a sign of depression in this model. […] V is vehicle, A is ketamine, B is ketamine oxime analogue.

rats [7] = assay: Dose response study of motor coordination in rats (open field behavior); type: in vivo
Method: The effect of ketamine oxime disalt on motor coordination in rats was evaluated.

α1β2γ2 GABAa receptors = biological target: T2, α1β2γ2 GABAa receptors (Homo sapiens, UniProt P14867+P18507+P47870); assay: Agonist activity of ketamine analogues on GABAa receptors (potentiation of GABA current, oocyte expression system); type: cell-based; details: for potentiation of GABAa current, in words: 20 μM
T2 construct: expressed in transfected cells
Method: as §1, §2

[8] = test system: α6- and δ-containing GABAa receptors; details: within anesthetically relevant concentration; cited from earlier work
NMDA receptors = assay: NMDA receptor blockade and recovery, subtypes not separated in the text; type: cell-based; details: compared with ketamine
NMDA-NR1/2C receptors = NMDA-NR1/2C receptors (Homo sapiens, UniProt Q05586+Q14957); assay: Antagonist activity on NMDA receptors (current blockade and recovery); type: cell-based; details: concentrations 0.1 to 200 μM
mice = details: not significant when compared with ketamine; cited from earlier work
[9] = NMDA-D (NR1/2D), drug concentration 50 μM, current post drug treatment
[10] = NMDA-B (NR1/2B), drug concentration 50 μM, current post drug treatment
[11] = NMDA-A (NR1/2A), drug concentration 50 μM, current post drug treatment
[12] = NMDA-NR1/2D, affinity study, concentrations 0.1 to 200 μM
[13] = NMDA-NR1/2B, affinity study, concentrations 0.1 to 200 μM
[14] = NMDA-NR1/2A, affinity study, concentrations 0.1 to 200 μM

T1 sequence (Q16445 20-453): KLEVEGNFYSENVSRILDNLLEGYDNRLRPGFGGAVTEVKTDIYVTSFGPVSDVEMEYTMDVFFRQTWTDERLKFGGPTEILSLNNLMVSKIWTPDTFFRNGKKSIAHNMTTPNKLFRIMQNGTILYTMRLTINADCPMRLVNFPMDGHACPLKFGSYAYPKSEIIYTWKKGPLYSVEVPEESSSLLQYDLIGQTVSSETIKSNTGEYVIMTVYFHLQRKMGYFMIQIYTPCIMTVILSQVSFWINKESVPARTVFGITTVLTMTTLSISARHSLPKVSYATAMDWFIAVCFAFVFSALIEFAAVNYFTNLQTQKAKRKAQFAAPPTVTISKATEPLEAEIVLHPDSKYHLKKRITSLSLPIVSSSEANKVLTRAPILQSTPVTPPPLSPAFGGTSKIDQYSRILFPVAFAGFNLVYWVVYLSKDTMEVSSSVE
T1 sequence (P47870 25-512 limits assumed): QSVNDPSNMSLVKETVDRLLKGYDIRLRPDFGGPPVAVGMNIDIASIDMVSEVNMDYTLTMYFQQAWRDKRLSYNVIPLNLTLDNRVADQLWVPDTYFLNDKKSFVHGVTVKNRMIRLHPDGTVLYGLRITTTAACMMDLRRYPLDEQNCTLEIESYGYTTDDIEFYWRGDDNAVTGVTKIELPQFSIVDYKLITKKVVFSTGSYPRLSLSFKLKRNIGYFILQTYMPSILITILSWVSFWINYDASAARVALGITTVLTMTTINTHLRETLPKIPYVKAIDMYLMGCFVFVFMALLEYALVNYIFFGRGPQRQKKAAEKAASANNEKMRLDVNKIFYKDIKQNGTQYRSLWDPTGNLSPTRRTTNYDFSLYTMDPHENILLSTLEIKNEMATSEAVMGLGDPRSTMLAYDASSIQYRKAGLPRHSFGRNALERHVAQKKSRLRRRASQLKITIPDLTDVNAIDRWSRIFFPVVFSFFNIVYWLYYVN
T1 sequence (O14764 25-452): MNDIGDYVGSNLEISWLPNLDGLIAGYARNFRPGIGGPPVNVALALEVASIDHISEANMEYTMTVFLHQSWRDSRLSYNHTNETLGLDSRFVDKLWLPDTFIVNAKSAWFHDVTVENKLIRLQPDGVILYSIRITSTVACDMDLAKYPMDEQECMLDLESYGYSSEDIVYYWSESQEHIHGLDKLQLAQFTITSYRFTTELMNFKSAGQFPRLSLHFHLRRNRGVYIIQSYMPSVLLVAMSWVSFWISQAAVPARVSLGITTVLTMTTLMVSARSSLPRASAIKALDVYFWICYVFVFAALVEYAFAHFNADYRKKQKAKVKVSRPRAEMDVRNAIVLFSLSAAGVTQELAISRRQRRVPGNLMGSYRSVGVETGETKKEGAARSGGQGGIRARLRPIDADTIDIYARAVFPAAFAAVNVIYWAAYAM
T2 sequence (P14867 28-456): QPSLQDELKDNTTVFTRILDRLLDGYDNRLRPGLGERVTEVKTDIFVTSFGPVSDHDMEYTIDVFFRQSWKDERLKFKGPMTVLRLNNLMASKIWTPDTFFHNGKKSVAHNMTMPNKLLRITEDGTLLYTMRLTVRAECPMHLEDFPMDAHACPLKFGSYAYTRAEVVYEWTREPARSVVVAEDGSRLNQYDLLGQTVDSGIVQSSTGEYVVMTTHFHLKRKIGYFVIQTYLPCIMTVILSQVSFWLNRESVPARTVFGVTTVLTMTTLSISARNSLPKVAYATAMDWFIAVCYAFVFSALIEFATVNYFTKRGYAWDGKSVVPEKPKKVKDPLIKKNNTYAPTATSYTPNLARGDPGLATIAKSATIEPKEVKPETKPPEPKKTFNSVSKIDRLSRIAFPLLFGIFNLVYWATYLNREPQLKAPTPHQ
T2 sequence (P47870 25-512 limits assumed): as the sequence (P47870 25-512 limits assumed) above
T2 sequence (P18507 40-475): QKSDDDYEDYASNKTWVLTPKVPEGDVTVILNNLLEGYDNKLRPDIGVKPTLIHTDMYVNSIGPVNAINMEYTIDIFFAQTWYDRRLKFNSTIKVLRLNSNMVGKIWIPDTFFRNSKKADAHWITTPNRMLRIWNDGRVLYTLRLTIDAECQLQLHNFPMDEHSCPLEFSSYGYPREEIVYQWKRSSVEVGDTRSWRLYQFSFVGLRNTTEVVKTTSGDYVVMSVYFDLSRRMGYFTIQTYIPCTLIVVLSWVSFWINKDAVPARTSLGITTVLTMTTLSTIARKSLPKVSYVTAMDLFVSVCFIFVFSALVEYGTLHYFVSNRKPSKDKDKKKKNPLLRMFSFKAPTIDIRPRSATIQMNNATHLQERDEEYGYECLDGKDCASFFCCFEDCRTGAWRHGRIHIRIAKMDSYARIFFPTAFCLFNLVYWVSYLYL
NMDA-A (NR1/2A) receptors, sequence (Q12879 23-1464, other chains not shown): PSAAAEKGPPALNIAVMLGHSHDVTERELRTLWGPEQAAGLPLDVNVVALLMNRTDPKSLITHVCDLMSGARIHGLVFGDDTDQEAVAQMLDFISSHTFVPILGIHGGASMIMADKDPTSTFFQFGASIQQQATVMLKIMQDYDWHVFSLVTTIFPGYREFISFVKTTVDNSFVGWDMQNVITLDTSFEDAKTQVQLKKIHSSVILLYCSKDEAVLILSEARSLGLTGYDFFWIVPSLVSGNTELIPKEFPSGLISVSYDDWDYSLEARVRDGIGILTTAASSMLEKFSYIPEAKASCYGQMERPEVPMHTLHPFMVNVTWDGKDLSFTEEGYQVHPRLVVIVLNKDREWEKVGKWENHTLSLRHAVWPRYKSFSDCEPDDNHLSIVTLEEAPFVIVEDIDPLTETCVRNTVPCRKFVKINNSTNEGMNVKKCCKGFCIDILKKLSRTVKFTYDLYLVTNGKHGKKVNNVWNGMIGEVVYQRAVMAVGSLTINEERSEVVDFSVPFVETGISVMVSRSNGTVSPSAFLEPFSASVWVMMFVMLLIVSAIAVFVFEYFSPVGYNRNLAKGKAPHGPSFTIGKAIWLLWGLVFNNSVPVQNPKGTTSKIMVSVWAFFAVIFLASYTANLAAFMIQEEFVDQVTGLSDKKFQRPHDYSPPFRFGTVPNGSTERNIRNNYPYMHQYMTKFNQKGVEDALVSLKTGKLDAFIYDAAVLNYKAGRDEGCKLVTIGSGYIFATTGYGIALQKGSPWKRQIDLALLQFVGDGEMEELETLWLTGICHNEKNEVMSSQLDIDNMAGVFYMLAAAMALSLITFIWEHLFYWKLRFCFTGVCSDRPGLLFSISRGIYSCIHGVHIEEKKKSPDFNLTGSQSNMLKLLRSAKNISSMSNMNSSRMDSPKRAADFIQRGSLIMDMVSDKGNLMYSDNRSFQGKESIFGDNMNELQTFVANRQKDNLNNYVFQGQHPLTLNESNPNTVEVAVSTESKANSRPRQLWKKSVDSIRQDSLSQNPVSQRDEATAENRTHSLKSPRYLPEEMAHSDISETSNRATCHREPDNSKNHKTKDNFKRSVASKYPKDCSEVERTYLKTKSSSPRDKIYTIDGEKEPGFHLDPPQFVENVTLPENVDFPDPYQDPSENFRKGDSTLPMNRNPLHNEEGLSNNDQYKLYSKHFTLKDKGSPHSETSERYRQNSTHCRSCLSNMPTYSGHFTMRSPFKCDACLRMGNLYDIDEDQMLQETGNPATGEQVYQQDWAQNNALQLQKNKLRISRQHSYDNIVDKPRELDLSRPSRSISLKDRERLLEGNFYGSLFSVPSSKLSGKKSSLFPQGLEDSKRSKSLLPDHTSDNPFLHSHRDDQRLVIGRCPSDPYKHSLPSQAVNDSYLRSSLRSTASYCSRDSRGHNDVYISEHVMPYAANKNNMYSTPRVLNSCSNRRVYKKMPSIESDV
NMDA-D (NR1/2D) receptors, sequence (O15399 28-1336, other chains not shown): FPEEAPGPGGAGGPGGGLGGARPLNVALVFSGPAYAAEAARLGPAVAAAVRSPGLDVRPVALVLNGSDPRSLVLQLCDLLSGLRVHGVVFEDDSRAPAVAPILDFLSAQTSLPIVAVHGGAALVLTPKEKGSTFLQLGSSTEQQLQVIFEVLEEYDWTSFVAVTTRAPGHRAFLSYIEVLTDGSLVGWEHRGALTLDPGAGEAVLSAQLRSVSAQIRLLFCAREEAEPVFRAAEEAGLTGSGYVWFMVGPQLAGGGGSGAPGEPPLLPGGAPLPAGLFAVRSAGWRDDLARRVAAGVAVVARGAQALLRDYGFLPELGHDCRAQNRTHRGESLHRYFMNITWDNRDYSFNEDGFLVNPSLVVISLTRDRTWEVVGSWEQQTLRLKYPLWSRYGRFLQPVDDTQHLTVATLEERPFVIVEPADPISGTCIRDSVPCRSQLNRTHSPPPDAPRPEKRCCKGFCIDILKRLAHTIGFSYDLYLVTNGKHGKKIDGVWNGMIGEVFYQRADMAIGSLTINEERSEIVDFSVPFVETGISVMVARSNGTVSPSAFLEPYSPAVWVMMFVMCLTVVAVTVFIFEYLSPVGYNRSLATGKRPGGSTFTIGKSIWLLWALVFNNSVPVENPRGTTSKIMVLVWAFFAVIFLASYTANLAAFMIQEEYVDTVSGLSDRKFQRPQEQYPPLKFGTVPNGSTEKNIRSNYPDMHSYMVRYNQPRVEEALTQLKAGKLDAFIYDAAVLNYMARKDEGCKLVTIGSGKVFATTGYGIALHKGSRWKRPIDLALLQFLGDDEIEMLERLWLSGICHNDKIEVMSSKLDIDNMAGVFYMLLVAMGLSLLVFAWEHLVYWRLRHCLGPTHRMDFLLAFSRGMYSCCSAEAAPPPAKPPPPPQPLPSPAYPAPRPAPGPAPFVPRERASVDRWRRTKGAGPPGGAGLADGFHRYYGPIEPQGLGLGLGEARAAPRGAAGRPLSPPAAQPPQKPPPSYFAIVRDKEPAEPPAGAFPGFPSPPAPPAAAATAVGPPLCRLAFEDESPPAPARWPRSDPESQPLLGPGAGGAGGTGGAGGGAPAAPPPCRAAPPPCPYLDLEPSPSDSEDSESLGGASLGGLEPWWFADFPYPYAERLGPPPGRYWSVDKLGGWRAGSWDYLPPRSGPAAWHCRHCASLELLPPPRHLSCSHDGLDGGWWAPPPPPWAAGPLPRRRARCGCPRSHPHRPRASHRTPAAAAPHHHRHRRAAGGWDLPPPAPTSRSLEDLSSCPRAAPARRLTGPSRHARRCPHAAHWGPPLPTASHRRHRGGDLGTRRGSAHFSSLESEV

| Compound | inhibition at 50 µM [1] [%] | % Recovery [1, 9] [%] | potentiation of GABAA current / response from GABAa receptors, in words (GABAa receptors) | inhibition at 50 µM [3] [%] | % Recovery [3, 10] [%] | inhibition at 50 µM [4] [%] | % Recovery [4, 11] [%] | IAverage = (IGABA + Drug/IGABA) 100 (α6β2δ GABAa receptors; Conc. 10 (μM)) [n. amp] | IAverage = (IGABA + Drug/IGABA) 100 (α6β2δ GABAa receptors; Conc. 20 (μM)) [n. amp] | IAverage = (IGABA + Drug/IGABA) 100 (α6β2δ GABAa receptors; Conc. 50 (μM)) [n. amp] | also measured |
| --- | --- | --- | --- | --- | --- | --- | --- | --- | --- | --- | --- |
| CNC1(c2ccccc2Cl)CCCC/C1=N\OCc1ccccc1 (stereo not drawn) [Benzoxime, 2-(2-Chloro-phenyl)-2-methylamino-cyclohexanone O-benzyl-oxime] | 49.3 | 79.452 | did not evoke considerable response | 41 | 77.639 | – | – | – | – | – | lipophilicity compared to ketamine [2]: increased lipophilicity |
| CNC1(c2ccccc2Cl)CCCC/C1=N\OC (stereo not drawn) [Methoxime, 2-(2-Chloro-phenyl)-2-methylamino-cyclohexanone O-methyl-oxime] | 57.5 | 82.5 | did not evoke considerable response | 75.6 | 71.6417 | 25.3 | 98.453 | – | – | – | lipophilicity compared to ketamine [2]: increased lipophilicity |
| CNC1(c2ccc(OC)cc2Cl)CCCCC1=O (stereo not drawn) [G] | – | – | – | – | – | – | – | – | – | – | functional activity in comparison to ketamine [5]: appreciable activity |
| CNC1(c2ccccc2Cl)CCCCC1O (stereo not drawn) [Hydroxy, 2-(2-Chloro-phenyl)-2-methylamino-cyclohexanol] | – | – | less sensitivity than ketamine | – | – | – | – | 100 | 100 | 123.98 | IAverage = (IGABA + Drug/IGABA) 100 (α6β2δ GABAa receptors; Conc. 100 (μM)): 135.41 n. amp |
| CNC1(c2ccccc2Cl)CCCC/C1=N\O (stereo not drawn) [Oxime (Disalt), 2-(2-Chloro-phenyl)-2-methylamino-cyclohexanone oxime] | – | – | – | – | – | – | – | 165.4 | 239 | 418 | immobility in tail suspension, overall versus saline (rats [6]): No significant differences; immobility in tail suspension, slope analysis (rats [6]): decreased immobility; effect on motor coordination (open field behavior) (rats [7]; 6 and 12 minute period following injection, dose response): CNS depressant effects; observed behaviour in vivo (rats [7]; at higher doses): loss of equilibrium, unsteady gait and immobility; righting reflex (an indication of anesthesia) (rats [7]; at higher doses): without loss of righting reflex; potentiation of GABAa current, in words (α1β2γ2 GABAa receptors): greatly potentiated; increase in potentiation relative to ketamine (α1β2γ2 GABAa receptors; 100 μM): nearly two fold increase; IAverage = (IGABA + Drug/IGABA) 100 (α1β2γ2 GABAa receptors; Conc. 20 (μM)): 122.678 n. amp; IAverage = (IGABA + Drug/IGABA) 100 (α1β2γ2 GABAa receptors; Conc. 50 (μM)): 153.41 n. amp; IAverage = (IGABA + Drug/IGABA) 100 (α1β2γ2 GABAa receptors; Conc. 100 (μM)): 214.5 n. amp; potentiation of GABAa current, in words (α6β2δ GABAa receptors; 20 μM): greater potentiation; increase in potentiation relative to ketamine (α6β2δ GABAa receptors; 50 μM): nearly two fold increase |
| C[C@]12N[C@H](Cc3ccccc31)c1ccccc12 [Mk-801] | – | – | – | – | – | – | – | – | – | – | potentiation of GABA / tonic chloride current [8]: less active compared to ketamine |
| CNC1(c2ccccc2Cl)CCCC/C1=N\O (stereo not drawn) [Oxime, 2-(2-Chloro-phenyl)-2-methylamino-cyclohexanone oxime] | 86.7 | 52.272 | greatly potentiated | 83 | 33.9622 | 89.2 | 86.1538 | – | – | – | IC50 [1]: 1.07 µM; % Recovery [1, 12]: 68%; lasting effect following wash of the drug (NMDA receptors): less than ketamine; lipophilicity compared to ketamine [2]: reduce lipophilicity; excitory post synaptic potential relative to ketamine (GABAa receptors; GABAa receptors): two times more excitory post synaptic potential than ketamine; IC50 [3]: 1.07 µM; % Recovery [3, 13]: 31%; % Recovery (NMDA-NR1/2C receptors; affinity study): 44%; IC50 (NMDA-NR1/2C receptors): 0.747 µM; IC50 [4]: 5.91 µM; IC50 versus ketamine ([4]; NMDA-A receptors): two fold higher; % Recovery [4, 14]: 74% |
| CNC1(c2ccccc2Cl)CCCC/C1=N\O (stereo not drawn) [Oxime (Monosalt), 2-(2-Chloro-phenyl)-2-methylamino-cyclohexanone oxime] | – | – | – | – | – | – | – | 128.2 | 193.746 | 312.04 | – |
| CNC1(c2ccccc2Cl)CCCC/C1=N\NC(N)=O (stereo not drawn) [Semicarbazone, 2-(2-Chloro-phenyl)-2-methylamino-cyclohexanone O-semicarbazone] | 33.3 | – | less sensitive than ketamine | 50.8 | 98.484 | 33.6 | – | – | – | – | – |
| CC1(N)C(=O)CCc2ccccc21 (stereo not drawn) [1-amino-1-methyl-2-tetralone] | – | – | – | – | – | – | – | – | – | – | locomotor activity (mice): decreased |
| c1ccc(C2(N3CCCCC3)CCCCC2)cc1 [PCP, Phencyclidine, reference compound] | 87.5 | 66.666 | – | 96.8 | 59.677 | 88.4 | 93.953 | – | – | – | potentiation of GABA / tonic chloride current [8]: less active compared to ketamine |
| CC1(N)CCc2ccccc2C1=O (stereo not drawn) [2-amino-2-methyl-1-tetralone] | – | – | – | – | – | – | – | – | – | – | locomotor activity (mice): increased locomotor activity |
| CNC1(c2ccccc2Cl)CCCCC1=O (stereo not drawn) [Ketamine, reference compound] | 88.1 | 26.19 | – | 80.5 | 34.564 | 57.6 | 84.745 | 116.2 | 157.1 | 218.3 | IC50 [1]: 0.76 µM; % Recovery [1, 12]: 24%; potentiation of GABA / tonic chloride current [8]: potentiated the GABA current; immobility in tail suspension, overall versus saline (rats [6]): No significant differences; IC50 [3]: 0.82 µM; % Recovery [3, 13]: 19%; IC50 [4]: 2.32 µM; % Recovery [4, 14]: 28%; potentiation of GABAa current, in words (α1β2γ2 GABAa receptors): not able to potentiate any current; IAverage = (IGABA + Drug/IGABA) 100 (α1β2γ2 GABAa receptors; Conc. 20 (μM)): 0 n. amp; IAverage = (IGABA + Drug/IGABA) 100 (α1β2γ2 GABAa receptors; Conc. 50 (μM)): 105 n. amp; IAverage = (IGABA + Drug/IGABA) 100 (α1β2γ2 GABAa receptors; Conc. 100 (μM)): 119 n. amp |
